According to US20260193264A1, “BENZOYPARAZINE PYRAZINES AND THEIR USES” (FOGHORN THERAPEUTICS INC., priority 2022, published 2026):

Experiments:
[1] = biological target: T1, HiBiT-BRM fusion protein in stable HeLa cell line (Homo sapiens, UniProt P51531); experiment: HiBiT-BRM cell-based degradation assay (Nano-Glo HiBiT Lytic Detection, 24 h); parameters: DC50: scale not given here; conditions: HeLa HiBiT-BRM cells; for BRM HiBit Degradation Maximum (%): top dose 30 μM; for DC50: read-out: BRM HiBit Degradation IC50
T1 construct: expressed in transfected cells
Summary of the method: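 Luminescence from HiBiT/LgBiT complementation after lysis reports remaining HiBiT-BRM in stable HeLa cells exposed to compound for 24 h. Dosing used 3-fold serial dilutions, 10 points, 30 μM top final concentration. DMSO and a 2 μM BRM/BRG1 degrader standard defined 0% and 100% degradation.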

[2] = biological target: T2, HiBit-BRG1 fusion protein in stable HeLa cell line expressing HiBit-BRG1 and LgBit (Homo sapiens, UniProt P51532); experiment: HiBiT-BRG1 cell-based degradation assay (Nano-Glo HiBiT, 24 h); conditions: HeLa HiBit-BRG1/LgBit cells; for Dmax: top dose 30 μM, read-out: BRG1 HiBit Degradation Maximum (%); for DC50: read-out: BRMG1 HiBit Degradation IC50
T2 construct: expressed in transfected cells
Summary of the method: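 Stable HeLa line co-expressing HiBiT-BRG1 and LgBiT, compound-treated 24 h; luminescence read after Nano-Glo HiBiT lytic reagent. % degradation normalised between DMSO (high control) and 2 μM reference BRM/BRG1 degrader (low control).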

T2 sequence (P51532 whole entry, the tested form may be a part): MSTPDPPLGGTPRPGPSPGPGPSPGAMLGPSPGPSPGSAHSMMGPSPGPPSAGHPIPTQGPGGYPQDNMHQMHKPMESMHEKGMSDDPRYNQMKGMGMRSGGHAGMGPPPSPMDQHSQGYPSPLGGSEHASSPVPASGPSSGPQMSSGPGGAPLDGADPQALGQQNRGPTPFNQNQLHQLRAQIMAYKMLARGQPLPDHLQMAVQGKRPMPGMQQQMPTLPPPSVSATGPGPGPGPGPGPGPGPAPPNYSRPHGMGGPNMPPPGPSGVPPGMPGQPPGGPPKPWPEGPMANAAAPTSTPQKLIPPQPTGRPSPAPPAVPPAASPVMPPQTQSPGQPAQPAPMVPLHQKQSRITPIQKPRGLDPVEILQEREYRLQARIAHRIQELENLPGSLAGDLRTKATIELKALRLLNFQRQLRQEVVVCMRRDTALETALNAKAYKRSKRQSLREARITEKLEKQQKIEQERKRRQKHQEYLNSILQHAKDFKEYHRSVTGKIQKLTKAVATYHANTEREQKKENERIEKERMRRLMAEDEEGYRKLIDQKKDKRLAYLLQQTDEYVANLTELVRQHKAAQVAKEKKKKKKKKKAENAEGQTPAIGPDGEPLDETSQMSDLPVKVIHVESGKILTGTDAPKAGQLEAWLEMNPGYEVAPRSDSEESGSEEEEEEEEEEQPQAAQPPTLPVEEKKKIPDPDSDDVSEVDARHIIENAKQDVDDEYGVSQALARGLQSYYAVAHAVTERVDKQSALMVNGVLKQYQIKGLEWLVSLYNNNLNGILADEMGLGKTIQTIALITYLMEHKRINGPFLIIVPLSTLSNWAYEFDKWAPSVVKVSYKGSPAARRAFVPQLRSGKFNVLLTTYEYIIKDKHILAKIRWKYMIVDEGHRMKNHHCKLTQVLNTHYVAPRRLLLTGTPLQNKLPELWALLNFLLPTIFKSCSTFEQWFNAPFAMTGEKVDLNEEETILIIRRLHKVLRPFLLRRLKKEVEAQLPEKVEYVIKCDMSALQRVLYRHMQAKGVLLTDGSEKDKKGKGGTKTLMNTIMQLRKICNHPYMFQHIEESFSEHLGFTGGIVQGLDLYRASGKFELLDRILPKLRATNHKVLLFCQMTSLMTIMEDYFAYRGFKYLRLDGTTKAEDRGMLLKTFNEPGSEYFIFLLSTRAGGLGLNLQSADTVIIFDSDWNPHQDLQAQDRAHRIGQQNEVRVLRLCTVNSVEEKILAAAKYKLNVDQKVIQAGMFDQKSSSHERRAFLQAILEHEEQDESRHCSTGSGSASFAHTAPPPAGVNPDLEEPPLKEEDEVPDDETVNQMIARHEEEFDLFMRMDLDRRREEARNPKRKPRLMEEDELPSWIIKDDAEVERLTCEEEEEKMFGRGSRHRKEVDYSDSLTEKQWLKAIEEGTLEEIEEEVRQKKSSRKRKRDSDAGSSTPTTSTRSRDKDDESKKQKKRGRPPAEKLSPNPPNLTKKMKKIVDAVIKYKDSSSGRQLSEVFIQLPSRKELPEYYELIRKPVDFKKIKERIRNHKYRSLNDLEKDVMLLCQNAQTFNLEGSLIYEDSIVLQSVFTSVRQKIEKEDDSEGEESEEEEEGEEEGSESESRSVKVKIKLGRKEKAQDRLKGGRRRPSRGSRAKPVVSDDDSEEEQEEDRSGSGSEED
T1 sequence (P51531 whole entry, the tested form may be a part): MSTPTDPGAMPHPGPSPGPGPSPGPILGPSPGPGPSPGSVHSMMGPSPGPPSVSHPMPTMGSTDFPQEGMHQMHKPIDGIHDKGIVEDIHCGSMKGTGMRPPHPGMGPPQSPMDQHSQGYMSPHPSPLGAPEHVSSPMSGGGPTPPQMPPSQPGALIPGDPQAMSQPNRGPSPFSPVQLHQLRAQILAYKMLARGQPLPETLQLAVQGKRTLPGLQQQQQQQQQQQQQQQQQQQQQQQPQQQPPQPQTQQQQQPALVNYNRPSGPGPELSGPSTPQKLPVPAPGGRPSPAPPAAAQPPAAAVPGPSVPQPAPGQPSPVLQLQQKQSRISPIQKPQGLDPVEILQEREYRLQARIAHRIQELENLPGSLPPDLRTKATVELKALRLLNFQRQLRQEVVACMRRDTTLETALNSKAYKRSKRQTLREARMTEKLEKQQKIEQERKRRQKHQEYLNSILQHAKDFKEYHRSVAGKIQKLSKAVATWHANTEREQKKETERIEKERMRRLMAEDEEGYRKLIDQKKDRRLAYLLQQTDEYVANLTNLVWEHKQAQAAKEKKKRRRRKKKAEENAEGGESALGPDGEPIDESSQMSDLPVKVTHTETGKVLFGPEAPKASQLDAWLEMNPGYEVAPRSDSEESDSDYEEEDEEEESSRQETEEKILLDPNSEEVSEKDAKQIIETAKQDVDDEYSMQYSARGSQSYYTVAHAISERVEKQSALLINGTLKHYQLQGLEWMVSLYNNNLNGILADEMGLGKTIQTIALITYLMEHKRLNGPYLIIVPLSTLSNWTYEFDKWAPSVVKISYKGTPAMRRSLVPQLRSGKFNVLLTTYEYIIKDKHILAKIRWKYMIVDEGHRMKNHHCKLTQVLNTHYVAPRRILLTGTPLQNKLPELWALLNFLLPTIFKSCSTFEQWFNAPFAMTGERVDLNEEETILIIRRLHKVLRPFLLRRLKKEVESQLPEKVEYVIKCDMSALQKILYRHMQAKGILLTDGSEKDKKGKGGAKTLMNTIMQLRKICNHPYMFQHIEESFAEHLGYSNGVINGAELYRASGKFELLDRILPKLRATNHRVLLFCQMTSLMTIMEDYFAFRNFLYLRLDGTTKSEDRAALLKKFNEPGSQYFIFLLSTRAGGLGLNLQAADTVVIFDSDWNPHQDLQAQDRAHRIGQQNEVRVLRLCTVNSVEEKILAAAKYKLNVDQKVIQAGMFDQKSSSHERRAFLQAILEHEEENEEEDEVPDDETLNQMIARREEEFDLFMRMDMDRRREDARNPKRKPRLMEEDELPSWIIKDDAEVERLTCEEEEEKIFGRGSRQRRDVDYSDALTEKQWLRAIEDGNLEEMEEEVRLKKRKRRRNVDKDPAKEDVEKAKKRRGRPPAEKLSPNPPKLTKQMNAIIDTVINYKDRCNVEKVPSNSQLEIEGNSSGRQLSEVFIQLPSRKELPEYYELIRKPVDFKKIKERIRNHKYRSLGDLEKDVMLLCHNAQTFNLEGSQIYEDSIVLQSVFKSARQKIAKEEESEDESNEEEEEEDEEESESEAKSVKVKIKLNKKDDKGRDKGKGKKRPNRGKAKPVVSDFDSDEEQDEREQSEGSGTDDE

Compound	Dmax [2]	DC50 [1]	DC50 [2]	BRM HiBit Degradation Maximum (%) [1]
Cc1ncsc1-c1ccc([C@H](C)NC(=O)[C@@H]2C[C@@H](O)CN2C(=O)[C@@H](c2ccnc(N3CC4(CN(c5ccc6nnc(-c7ccccc7O)cc6c5)C4)C3)c2)C(C)C)cc1 [Compound 160, (2S,4R)-4-hydroxy-1-[(2R)-2-(2-{6-[3-(2-hydroxyphenyl)cinnolin-6-yl]-2,6-diazaspiro[3.3]heptan-2-yl}pyridin-4-yl)-3-methylbutanoyl]-N-[(1S)-1-[4-(4-methyl-1,3-thiazol-5-yl)phenyl]ethyl]pyrrolidine-2-carboxamide]	< 50%	–	–	B (“B” indicates maximum degradation ≥50%)
Cc1ncsc1-c1ccc([C@H](C)NC(=O)[C@@H]2C[C@@H](O)CN2C(=O)[C@@H](c2cc(N3CC4(C3)CN(c3cc5nnc(-c6ccccc6O)cc5cc3C#N)C4)no2)C(C)C)cc1 [Compound 167, (2S,4R)-1-((R)-2-(3-(6-(6-cyano-3-(2-hydroxyphenyl)cinnolin-7-yl)-2,6-diazaspiro[3.3]heptan-2-yl)isoxazol-5-yl)-3-methylbutanoyl)-4-hydroxy-N-((S)-1-(4-(4-methylthiazol-5-yl)phenyl)ethyl)pyrrolidine-2-carboxamide]	< 50%	< 0.01 µM	–	A (“A” indicates maximum degradation ≥75%)
Cc1ncsc1-c1ccc([C@H](C)NC(=O)[C@@H]2C[C@@H](O)CN2C(=O)[C@@H](c2cc(N3CC4(C3)CN(c3cc5nnc(-c6ccccc6O)cc5cc3C(F)F)C4)no2)C(C)C)cc1 [Compound 168, (2S,4R)-1-((R)-2-(3-(6-(6-(difluoromethyl)-3-(2-hydroxyphenyl)cinnolin-7-yl)-2,6-diazaspiro[3.3]heptan-2-yl)isoxazol-5-yl)-3-methylbutanoyl)-4-hydroxy-N-((S)-1-(4-(4-methylthiazol-5-yl)phenyl)ethyl)pyrrolidine-2-carboxamide]	> 50%	< 0.01 µM	< 0.01 µM	A (“A” indicates maximum degradation ≥75%)
Cc1ncsc1-c1ccc([C@H](C)NC(=O)[C@@H]2C[C@@H](O)CN2C(=O)[C@H](C(C)C)n2cc(N3CC4(CN(c5ccc6cc(-c7ccccc7O)nnc6c5)C4)C3)nn2)cc1 [Compound 169, (2S,4R)-4-hydroxy-1-((S)-2-(4-(6-(3-(2-hydroxyphenyl)cinnolin-7-yl)-2,6-diazaspiro[3.3]heptan-2-yl)-1H-1,2,3-triazol-1-yl)-3-methylbutanoyl)-N-((S)-1-(4-(4-methylthiazol-5-yl)phenyl)ethyl)pyrrolidine-2-carboxamide]	> 50%	< 0.01 µM	< 0.01 µM	A (“A” indicates maximum degradation ≥75%)
Cc1ncsc1-c1ccc([C@H](C)NC(=O)[C@@H]2C[C@@H](O)CN2C(=O)[C@H](C(C)C)n2cc(-c3cc4cc(-c5ccccc5O)nnc4cc3C#N)nn2)cc1 [Compound 170, (2S,4R)-1-[(2S)-2-{4-[7-cyano-3-(2-hydroxyphenyl)cinnolin-6-yl]-1,2,3-triazol-1-yl}-3-methylbutanoyl]-4-hydroxy-N-[(1S)-1-[4-(4-methyl-1,3-thiazol-5-yl)phenyl]ethyl]pyrrolidine-2-carboxamide]	< 50%	> 0.01 µM	–	B (“B” indicates maximum degradation ≥50%)
Cc1ncsc1-c1ccc([C@H](C)NC(=O)[C@@H]2C[C@@H](O)CN2C(=O)[C@H](C(C)C)n2cc(-c3cc4cc(-c5ccccc5O)nnc4cc3C(F)F)nn2)cc1 [Compound 171, (2S,4R)-1-((S)-2-(4-(7-(difluoromethyl)-3-(2-hydroxyphenyl)cinnolin-6-yl)-1H-1,2,3-triazol-1-yl)-3-methylbutanoyl)-4-hydroxy-N-((S)-1-(4-(4-methylthiazol-5-yl)phenyl)ethyl)pyrrolidine-2-carboxamide]	> 75%	< 0.01 µM	< 0.01 µM	A (“A” indicates maximum degradation ≥75%)
Cc1ncsc1-c1ccc([C@H](C)NC(=O)[C@@H]2C[C@@H](O)CN2C(=O)[C@H](C(C)C)n2cc(N3CC4(CN(c5ccc6nnc(-c7ccccc7O)cc6c5)C4)C3)nn2)cc1 [Compound 172, (2S,4R)-4-hydroxy-1-((S)-2-(4-(6-(3-(2-hydroxyphenyl)cinnolin-6-yl)-2,6-diazaspiro[3.3]heptan-2-yl)-1H-1,2,3-triazol-1-yl)-3-methylbutanoyl)-N-((S)-1-(4-(4-methylthiazol-5-yl)phenyl)ethyl)pyrrolidine-2-carboxamide]	> 50%	< 0.01 µM	< 0.01 µM	A (“A” indicates maximum degradation ≥75%)
Cc1ncsc1-c1ccc([C@H](C)NC(=O)[C@@H]2C[C@@H](O)CN2C(=O)[C@@H](c2cc(N3CC4(CN(c5cc(C#N)c6cc(-c7ccccc7O)nnc6c5)C4)C3)no2)C(C)C)cc1 [Compound 173, (2S,4R)-1-((R)-2-(3-(6-(5-cyano-3-(2-hydroxyphenyl)cinnolin-7-yl)-2,6-diazaspiro [3.3]heptan-2-yl)isoxazol-5-yl)-3-methylbutanoyl)-4-hydroxy-N-((S)-1-(4-(4-methylthiazol-5-yl)phenyl)ethyl)pyrrolidine-2-carboxamide]	< 50%	> 0.01 µM	–	B (“B” indicates maximum degradation ≥50%)
Cc1ncsc1-c1ccc([C@H](C)NC(=O)[C@@H]2C[C@@H](O)CN2C(=O)[C@@H](c2cccc(N3CC4(C3)CN(c3ccc5cc(-c6ccccc6O)nnc5c3)C4)c2)C(C)C)cc1 [Compound 174, (2S,4R)-4-hydroxy-1-((R)-2-(3-(6-(3-(2-hydroxyphenyl)cinnolin-7-yl)-2,6-diazaspiro[3.3]heptan-2-yl)phenyl)-3-methylbutanoyl)-N—((S)-1-(4-(4-methylthiazol-5-yl)phenyl)ethyl)pyrrolidine-2-carboxamide]	< 50%	> 0.01 µM	–	A (“A” indicates maximum degradation ≥75%)

Continued, in another order:

Dmax [2]	DC50 [1]	DC50 [2]	Compound	BRM HiBit Degradation Maximum (%) [1]
> 75%	< 0.01 µM	< 0.01 µM	Cc1ncsc1-c1ccc([C@H](C)NC(=O)[C@@H]2C[C@@H](O)CN2C(=O)[C@@H](c2cc(N3CCOC4(CN(c5ccc6cc(-c7ccccc7O)nnc6c5)C4)C3)no2)C(C)C)cc1 [Compound 162, (2S,4R)-4-hydroxy-1-((R)-2-(3-(2-(3-(2-hydroxyphenyl)cinnolin-7-yl)-5-oxa-2,8-diazaspiro[3.5]nonan-8-yl)isoxazol-5-yl)-3-methylbutanoyl)-N-((S)-1-(4-(4-methylthiazol-5-yl)phenyl)ethyl)pyrrolidine-2-carboxamide]	A (“A” indicates maximum degradation ≥75%)
< 50%	< 0.01 µM	–	Cc1ncsc1-c1ccc([C@H](C)NC(=O)[C@@H]2C[C@@H](O)CN2C(=O)[C@@H](c2cc(N3CC4(CN(c5cc(Cl)c6cc(-c7ccccc7O)nnc6c5)C4)C3)no2)C(C)C)cc1 [Compound 163, (2S,4R)-1-((R)-2-(3-(6-(5-chloro-3-(2-hydroxyphenyl)cinnolin-7-yl)-2,6-diazaspiro[3.3]heptan-2-yl)isoxazol-5-yl)-3-methylbutanoyl)-4-hydroxy-N-((S)-1-(4-(4-methylthiazol-5-yl)phenyl)ethyl)pyrrolidine-2-carboxamide]	A (“A” indicates maximum degradation ≥75%)
> 75%	< 0.01 µM	< 0.01 µM	Cc1ncsc1-c1ccc([C@H](C)NC(=O)[C@@H]2C[C@@H](O)CN2C(=O)[C@@H](c2cc(N3CC4(C3)CN(c3cc5cc(-c6ccccc6O)nnc5cc3C(F)F)C4)no2)C(C)C)cc1 [Compound 164, (2S,4R)-1-((R)-2-(3-(6-(7-(difluoromethyl)-3-(2-hydroxyphenyl)cinnolin-6-yl)-2,6-diazaspiro[3.3]heptan-2-yl)isoxazol-5-yl)-3-methylbutanoyl)-4-hydroxy-N-((S)-1-(4-(4-methylthiazol-5-yl)phenyl)ethyl)pyrrolidine-2-carboxamide]	A (“A” indicates maximum degradation ≥75%)
> 75%	< 0.01 µM	< 0.01 µM	Cc1ncsc1-c1ccc([C@H](C)NC(=O)[C@@H]2C[C@@H](O)CN2C(=O)[C@@H](c2cc(N3CCC4(CC3)CN(c3ccc5nnc(-c6ccccc6O)cc5c3)CCN4C)no2)C(C)C)cc1 [Compound 165, (2S,4R)-4-hydroxy-1-((R)-2-(3-(4-(3-(2-hydroxyphenyl)cinnolin-6-yl)-1-methyl-1,4,9-triazaspiro[5.5]undecan-9-yl)isoxazol-5-yl)-3-methylbutanoyl)-N-((S)-1-(4-(4-methylthiazol-5-yl)phenyl)ethyl)pyrrolidine-2-carboxamide]	A (“A” indicates maximum degradation ≥75%)
> 75%	< 0.01 µM	> 0.01 µM	Cc1ncsc1-c1ccc([C@H](C)NC(=O)[C@@H]2C[C@@H](O)CN2C(=O)[C@@H](c2cc(N3CCCC4(CN(c5ccc6nnc(-c7ccccc7O)cc6c5)C4)C3)no2)C(C)C)cc1 [Compound 166, (2S,4R)-4-hydroxy-1-((R)-2-(3-(2-(3-(2-hydroxyphenyl)cinnolin-6-yl)-2,6-diazaspiro[3.5]nonan-6-yl)isoxazol-5-yl)-3-methylbutanoyl)-N-((S)-1-(4-(4-methylthiazol-5-yl)phenyl)ethyl)pyrrolidine-2-carboxamide]	A (“A” indicates maximum degradation ≥75%)
